molecular target: human integrin αvβ6 (Homo sapiens (Human), UniProt P06756+P18564); assay: Proximity-based integrin receptor binding assay (ALPHASCREEN) for inhibitor potency; conditions: inhibition of binding of TGF-b1 LAP to human integrin αvβ6; values given in ranges
Description: To gauge the potency of inhibitors of binding to human integrin αvβ6, inhibitor compounds and integrin were incubated together with TGF-b1 LAP and biotinylated anti-LAP antibody plus acceptor and donor beads, following the manufacture's recommendations. The donor beads were coated with streptavidin. […] All incubations occurred at room temperatures in 50 mM Tris-HCl, pH 7.5, 0.1% BSA supplemented with 1 mM each CaCl2 and MgCl2.
The order of reagent addition was as follows:
1. Alpha-v-beta-6 integrin, test inhibitor compound, LAP, biotinylated anti-LAP antibody and acceptor beads were all added together.
2. After 2 hours, donor beads were added. After another 30 minute incubation, samples were then read.
Integrin binding was evaluated by exciting donor beads at 680 nm, and measuring the fluorescent signal produced, between 520-620 nm, using a Biotek Instruments (Winooski, Vt., USA) SynergyNeo2 multimode plate reader. […] Data analysis for IC50 determinations was carried out by nonlinear four parameter logistic regression analysis using Dotmatics ELN Software (Core Informatics Inc., Branford, Conn.).

human integrin αvβ6, sequence (P06756 31-992): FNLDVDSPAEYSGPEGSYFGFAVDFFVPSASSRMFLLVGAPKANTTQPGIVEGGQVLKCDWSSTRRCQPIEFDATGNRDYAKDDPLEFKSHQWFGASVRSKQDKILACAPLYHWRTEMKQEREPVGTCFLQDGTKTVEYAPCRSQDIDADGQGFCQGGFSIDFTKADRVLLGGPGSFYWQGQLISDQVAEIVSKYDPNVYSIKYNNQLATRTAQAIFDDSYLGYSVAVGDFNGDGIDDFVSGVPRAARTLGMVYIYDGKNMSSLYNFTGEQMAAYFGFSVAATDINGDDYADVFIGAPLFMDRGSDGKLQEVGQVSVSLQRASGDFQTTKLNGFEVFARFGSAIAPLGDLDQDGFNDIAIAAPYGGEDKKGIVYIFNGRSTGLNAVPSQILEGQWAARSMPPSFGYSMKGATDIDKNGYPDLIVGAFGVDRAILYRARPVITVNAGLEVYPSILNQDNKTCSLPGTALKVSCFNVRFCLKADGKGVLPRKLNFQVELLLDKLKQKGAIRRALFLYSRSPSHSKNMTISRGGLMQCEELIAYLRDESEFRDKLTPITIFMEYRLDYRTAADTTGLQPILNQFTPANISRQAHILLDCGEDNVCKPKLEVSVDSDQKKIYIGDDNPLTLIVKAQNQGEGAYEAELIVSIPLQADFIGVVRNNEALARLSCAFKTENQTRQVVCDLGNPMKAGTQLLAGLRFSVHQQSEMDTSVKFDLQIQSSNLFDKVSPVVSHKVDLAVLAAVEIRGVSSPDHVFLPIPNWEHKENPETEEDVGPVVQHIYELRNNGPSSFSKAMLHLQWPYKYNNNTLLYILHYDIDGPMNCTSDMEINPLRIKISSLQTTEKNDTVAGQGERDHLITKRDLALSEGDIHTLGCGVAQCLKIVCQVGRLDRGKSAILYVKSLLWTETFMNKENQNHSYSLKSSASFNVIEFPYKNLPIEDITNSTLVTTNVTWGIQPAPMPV
human integrin αvβ6, sequence (P18564 22-707): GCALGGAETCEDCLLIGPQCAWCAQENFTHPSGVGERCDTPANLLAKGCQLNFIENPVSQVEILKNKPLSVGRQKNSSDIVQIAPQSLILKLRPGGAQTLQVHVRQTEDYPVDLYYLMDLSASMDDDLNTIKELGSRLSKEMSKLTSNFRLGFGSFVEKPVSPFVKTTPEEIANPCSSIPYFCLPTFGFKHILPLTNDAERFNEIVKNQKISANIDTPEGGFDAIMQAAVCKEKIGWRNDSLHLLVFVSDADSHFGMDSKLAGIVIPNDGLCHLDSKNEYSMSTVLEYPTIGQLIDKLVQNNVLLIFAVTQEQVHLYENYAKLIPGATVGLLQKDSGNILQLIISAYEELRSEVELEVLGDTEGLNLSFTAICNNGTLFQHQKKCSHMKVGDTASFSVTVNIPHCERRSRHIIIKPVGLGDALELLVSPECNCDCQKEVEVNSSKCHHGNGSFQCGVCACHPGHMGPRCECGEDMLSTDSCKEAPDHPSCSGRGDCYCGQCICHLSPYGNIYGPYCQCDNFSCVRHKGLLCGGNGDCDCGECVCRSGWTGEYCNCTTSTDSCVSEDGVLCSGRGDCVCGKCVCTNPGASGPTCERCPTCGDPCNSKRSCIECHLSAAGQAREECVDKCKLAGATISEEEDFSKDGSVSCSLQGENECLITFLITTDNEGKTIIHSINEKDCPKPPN

| Compound | IC50 |
| --- | --- |
| O=C(N[C@@H](CCO[C@H]1C[C@H](CCc2ccc3c(n2)NCCC3)C1)C(=O)O)c1cccc(C2CC2)c1 [Compound 56, N-(3-cyclopropylbenzoyl)-O-(trans-3-(2-(5,6,7,8-tetrahydro-1,8-naphthyridin-2-yl)ethyl)cyclobutyl)homoserine] | 50 to 250 nM |
| O=C(NC(CCO[C@H]1C[C@H](CCc2ccc3c(n2)NCCC3)C1)C(=O)O)c1ccc(C2CC2)cc1 (stereo partly drawn) [Compound 57, N-(4-cyclopropylbenzoyl)-O-(trans-3-(2-(5,6,7,8-tetrahydro-, 8-naphthyridin-2-yl)ethyl)cyclobutyl)homoserine] | 250 to 1000 nM |
| CCC(CC)CC(=O)N[C@H](CCO[C@H]1C[C@H](CCc2ccc3c(n2)NCCC3)C1)C(=O)O [Compound 59, N-(3-ethylpentanoyl)-O-(trans-3-(2-(5,6,7,8-tetrahydro-1,8-naphthyridin-2-yl)ethyl)cyclobutyl)-D-homoserine] | > 1000 nM |
| O=C(NC(CCO[C@H]1C[C@H](CCc2ccc3c(n2)NCCC3)C1)C(=O)O)c1cccc(F)c1Cl (stereo partly drawn) [Compound 60, N-(2-chloro-3-fluorobenzoyl)-O-(trans-3-(2-(5,6,7,8-tetrahydro-1,8-naphthyridin-2-yl)ethyl)cyclobutyl)homoserine] | 50 to 250 nM |
| CCC(CC)CC(=O)NC(CCO[C@H]1C[C@H](CCc2ccc3c(n2)NCCC3)C1)C(=O)O (stereo partly drawn) [Compound 63, N-(3-ethylpentanoyl)-O-(trans-3-(2-(5,6,7,8-tetrahydro-1,8-naphthyridin-2-yl)ethyl)cyclobutyl)homoserine] | < 50 nM |
| O=C(NC(CCO[C@H]1C[C@H](CCc2ccc3c(n2)NCCC3)C1)C(=O)O)c1cccc(F)c1Cl (stereo partly drawn) [Compound 64, N-(2-chloro-3-fluorobenzoyl)-O-(trans-3-(2-(5,6,7,8-tetrahydro-1,8-naphthyridin-2-yl)ethyl)cyclobutyl)homoserine] | < 50 nM |
| O=C(N[C@@H](CCO[C@H]1C[C@@H](CCc2ccc3c(n2)NCCC3)C1)C(=O)O)c1ccc(F)c(F)c1 [Compound 66, N-(3,4-difluorobenzoyl)-O-(cis-3-(2-(5,6,7,8-tetrahydro-1,8-naphthyridin-2-yl)ethyl)cyclobutyl)homoserine] | 50 to 250 nM |
| CCC(CC)CC(=O)N[C@@H](CCO[C@H]1C[C@@H](CCc2ccc3c(n2)NCCC3)C1)C(=O)O [Compound 67, N-(3-ethylpentanoyl)-O-(cis-3-(2-(5,6,7,8-tetrahydro-1,8-naphthyridin-2-yl)ethyl)cyclobutyl)homoserine] | 50 to 250 nM |
| O=C(N[C@@H](CCO[C@H]1C[C@@H](CCc2ccc3c(n2)NCCC3)C1)C(=O)O)c1ccncc1 [Compound 68, N-isonicotinoyl-O-(cis-3-(2-(5,6,7,8-tetrahydro-1,8-naphthyridin-2-yl)ethyl)cyclobutyl)homoserine] | 250 to 1000 nM |
| O=C(N[C@@H](CCO[C@H]1C[C@@H](CCc2ccc3c(n2)NCCC3)C1)C(=O)O)c1cccc(-c2cncs2)c1 [Compound 69, O-(cis-3-(2-(5,6,7,8-tetrahydro-1,8-naphthyridin-2-yl)ethyl)cyclobutyl)-N-(3-(thiazol-5-yl)benzoyl)homoserine] | 250 to 1000 nM |
| O=C(O)C(CCO[C@H]1C[C@@H](CCc2ccc3c(n2)NCCC3)C1)NC(=O)[C@@H](CO)c1ccccc1 (stereo partly drawn) [Compound 70, N—((R)-3-hydroxy-2-phenylpropanoyl)-O-(cis-3-(2-(5,6,7,8-tetrahydro-1,8-naphthyridin-2-yl)ethyl)cyclobutyl)homoserine] | 50 to 250 nM |
| O=C(O)C(CCO[C@H]1C[C@@H](CCc2ccc3c(n2)NCCC3)C1)NC(=O)[C@@H](CO)c1ccccc1 (stereo partly drawn) [Compound 71, N—((R)-3-hydroxy-2-phenylpropanoyl)-O-(cis-3-(2-(5,6,7,8-tetrahydro-1,8-naphthyridin-2-yl)ethyl)cyclobutyl)homoserine] | > 1000 nM |
| Cn1cc(-c2cccc(C(=O)NC(CCO[C@H]3C[C@H](CCc4ccc5c(n4)NCCC5)C3)C(=O)O)c2)cn1 (stereo partly drawn) [Compound 72] | < 50 nM |
| Cn1cc(-c2cccc(C(=O)NC(CCOCCCCc3ccc4c(n3)NCCC4)C(=O)O)c2)cn1 (stereo not drawn) [Compound 73, N-(3-(1-methyl-1H-pyrazol-4-yl)benzoyl)-O-(4-(5,6,7,8-tetrahydro-1,8-naphthyridin-2-yl)butyl)homoserine] | 50 to 250 nM |
| O=C(O)C(CCOCCCCc1ccc2c(n1)NCCC2)NC(=O)[C@@H](O)c1ccccc1 (stereo partly drawn) [Compound 74, N—((S)-2-hydroxy-2-phenylacetyl)-O-(4-(5,6,7,8-tetrahydro-1,8-naphthyridin-2-yl)butyl)homoserine] | > 1000 nM |
| O=C(O)C(CCOCCCCc1ccc2c(n1)NCCC2)NC(=O)[C@@H](O)c1ccccc1 (stereo partly drawn) [Compound 75, N—((S)-2-hydroxy-2-phenylacetyl)-O-(4-(5,6,7,8-tetrahydro-1,8-naphthyridin-2-yl)butyl)homoserine] | 250 to 1000 nM |
| O=C(O)[C@H](CCOCCCCc1ccc2c(n1)NCCC2)NC(=O)[C@H](O)c1ccccc1 [Compound 76, N—((R)-2-hydroxy-2-phenylacetyl)-O-(4-(5,6,7,8-tetrahydro-1,8-naphthyridin-2-yl)butyl)homoserine] | 250 to 1000 nM |
| O=C(O)C(CCO[C@H]1C[C@H](CCc2ccc3c(n2)NCCC3)C1)NC(=O)[C@@H](O)c1ccccc1 (stereo partly drawn) [Compound 78, N—((S)-2-hydroxy-2-phenylacetyl)-O-(trans-3-(2-(5,6,7,8-tetrahydro-1,8-naphthyridin-2-yl)ethyl)cyclobutyl)homoserine] | > 1000 nM |
| O=C(O)C(CCO[C@H]1C[C@H](CCc2ccc3c(n2)NCCC3)C1)NC(=O)[C@@H](O)c1ccccc1 (stereo partly drawn) [Compound 79, N—((S)-2-hydroxy-2-phenylacetyl)-O-(trans-3-(2-(5,6,7,8-tetrahydro-1,8-naphthyridin-2-yl)ethyl)cyclobutyl)homoserine] | 50 to 250 nM |
| O=C(O)C(CCO[C@H]1C[C@H](CCc2ccc3c(n2)NCCC3)C1)NC(=O)[C@H](O)c1ccccc1 (stereo partly drawn) [Compound 80, N—((R)-2-hydroxy-2-phenylacetyl)-O-(trans-3-(2-(5,6,7,8-tetrahydro-1,8-naphthyridin-2-yl)ethyl)cyclobutyl)homoserine] | 50 to 250 nM |
| O=C(O)C(CCO[C@H]1C[C@H](CCc2ccc3c(n2)NCCC3)C1)NC(=O)[C@H](O)c1ccccc1 (stereo partly drawn) [Compound 81, N—((R)-2-hydroxy-2-phenylacetyl)-O-(trans-3-(2-(5,6,7,8-tetrahydro-1,8-naphthyridin-2-yl)ethyl)cyclobutyl)homoserine] | > 1000 nM |
| O=C(O)C(CCO[C@H]1C[C@H](CCc2ccc3c(n2)NCCC3)C1)NC(=O)C1(c2ccccc2)CC1 (stereo partly drawn) [Compound 82, N-(1-phenylcyclopropane-1-carbonyl)-O-(trans-3-(2-(5,6,7,8-tetrahydro-1,8-naphthyridin-2-yl)ethyl)cyclobutyl)homoserine] | 250 to 1000 nM |

same assay, conditions: inhibition of binding of TGF-b1 LAP to human integrin αvβ6; values given in ranges; listed as 61*

| Compound | IC50 |
| --- | --- |
| O=C(NC(CCO[C@H]1C[C@H](CCc2ccc3c(n2)NCCC3)C1)C(=O)O)c1cccc(-c2cncs2)c1 (stereo partly drawn) [Compound 61, O-(trans-3-(2-(5,6,7,8-tetrahydro-1,8-naphthyridin-2-yl)ethyl)cyclobutyl)-N-(3-(thiazol-5-yl)benzoyl)homoserine] | > 1000 nM |

same assay, conditions: inhibition of binding of TGF-b1 LAP to human integrin αvβ6; values given in ranges; listed as 65**

| Compound | IC50 |
| --- | --- |
| O=C(NC(CCO[C@H]1C[C@H](CCc2ccc3c(n2)NCCC3)C1)C(=O)O)c1cccc(-c2cncs2)c1 (stereo partly drawn) [Compound 65, O-(trans-3-(2-(5,6,7,8-tetrahydro-1,8-naphthyridin-2-yl)ethyl)cyclobutyl)-N-(3-(thiazol-5-yl)benzoyl)homoserine] | < 50 nM |

From patent US11180494B2, “Substituted amino acids as integrin inhibitors” (Pliant Therapeutics, Inc., priority 2018, dated 2021)
